From PubChem BioAssay (NCI)
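Cultured in 96-well plates, cells were exposed to test compound for 48 hours across five concentrations. TGI marks complete inhibition of growth.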

How the values were obtained:
Assay in all cases: DTP human tumour cell line panel, 48 h
[1] = test system: HT29 colon
[2] = test system: OVCAR-4 ovarian
[3] = test system: ACHN renal
[4] = test system: SNB-19 CNS
[5] = test system: MOLT-4 leukemia
[6] = test system: U251 CNS
[7] = test system: SK-MEL-5 melanoma
[8] = test system: UO-31 renal
[9] = test system: NCI-H522 lung
[10] = test system: OVCAR-5 ovarian
[11] = test system: MALME-3M melanoma
[12] = test system: CAKI-1 renal
[13] = test system: RPMI-8226 leukemia
[14] = test system: HL-60(TB) leukemia
[15] = test system: MDA-MB-231 breast
[16] = test system: UACC-257 melanoma
[17] = test system: IGROV1 ovarian
[18] = test system: MDA-N
[19] = test system: LOX IMVI melanoma
[20] = test system: HCT-116 colon
[21] = test system: MDA-MB-435
[22] = test system: SW-620 colon
[23] = test system: CCRF-CEM leukemia
[24] = test system: NCI-H460 lung
[25] = test system: SN12C renal
[26] = test system: SK-MEL-28 melanoma
[27] = test system: COLO 205 colon
[28] = test system: HS 578T breast
[29] = test system: SF-539 CNS
[30] = test system: OVCAR-3 ovarian
[31] = test system: 786-0 renal
[32] = test system: NCI-H23 lung
[33] = test system: EKVX NSCLC
[34] = test system: SNB-75 CNS
[35] = test system: DU-145 prostate
[36] = test system: TK-10 renal
[37] = test system: UACC-62 melanoma
[38] = test system: A498 renal
[39] = test system: KM12 colon
[40] = test system: HCC-2998 colon
[41] = test system: SK-MEL-2 melanoma
[42] = test system: SF-268 CNS
[43] = test system: SF-295 CNS
[44] = test system: M14 melanoma
[45] = test system: SR leukemia
[46] = test system: PC-3 prostate
[47] = test system: K-562 leukemia
[48] = test system: MCF7 breast
[49] = test system: OVCAR-8 ovarian
[50] = test system: SK-OV-3 ovarian
[51] = test system: A549 NSCLC
[52] = test system: NCI-H226 lung
[53] = test system: HCT-15 colon
[54] = test system: NCI/ADR-RES ovarian
[55] = test system: RXF 393 renal
[56] = test system: HOP-62 NSCLC
[57] = test system: HOP-92 NSCLC
[58] = test system: T-47D breast
[59] = test system: BT-549 breast

For Cc1cc(N(C)c2ccccc2)nc(N(C)c2ccccc2)n1, the TGI [1] was 39 µM, the TGI [2] was over 100 µM and the TGI [3] was 95.7 µM. It also gave a TGI [4] of over 100 µM, a TGI [5] of 99.9 µM and a TGI [6] of over 100 µM. For the same compound, the TGI [7] was 69.1 µM, the TGI [8] was over 100 µM and the TGI [9] was over 100 µM. The TGI [10] was 52.6 µM, the TGI [11] was 55.8 µM and the TGI [12] was over 100 µM. The TGI [13] was 65.1 µM, the TGI [14] was 59.6 µM and the TGI [15] was 78.9 µM. The TGI [16] was 57.7 µM, the TGI [17] was over 100 µM and the TGI [18] was over 100 µM. The TGI [19] was 27.9 µM, the TGI [20] was 37.6 µM and the TGI [21] was over 100 µM. The TGI [22] was over 100 µM, the TGI [23] was 46.5 µM and the TGI [24] was over 100 µM. For the same compound, the TGI [25] was over 100 µM, the TGI [26] was 98 µM and the TGI [27] was 49.1 µM. It also gave a TGI [28] of over 100 µM, a TGI [29] of 66.5 µM and a TGI [30] of 70.4 µM. For the same compound, the TGI [31] was over 100 µM, the TGI [32] was over 100 µM and the TGI [33] was over 100 µM. The TGI [34] was over 100 µM, the TGI [35] was over 100 µM and the TGI [36] was over 100 µM. For the same compound, the TGI [37] was over 100 µM, the TGI [38] was over 100 µM and the TGI [39] was 45.7 µM. For the same compound, the TGI [40] was 79.6 µM, the TGI [41] was 36.9 µM and the TGI [42] was over 100 µM. It also gave a TGI [43] of 92.5 µM, a TGI [44] of over 100 µM and a TGI [45] of 55.5 µM. For the same compound, the TGI [46] was over 100 µM, the TGI [47] was over 100 µM and the TGI [48] was 68.4 µM. The TGI [49] was over 100 µM, the TGI [50] was over 100 µM and the TGI [51] was over 100 µM. The TGI [52] was 96 µM, the TGI [53] was over 100 µM and the TGI [54] was over 100 µM. The TGI [55] was 59.5 µM and the TGI [56] was 72.8 µM.

Compound CSc1ncc2c(C#N)c3n(C)c4ccccc4n3c(=O)c2n1 has a TGI [1] of over 100 µM, a TGI [2] of over 100 µM and a TGI [3] of over 100 µM. It also gave a TGI [4] of over 100 µM, a TGI [5] of over 100 µM and a TGI [6] of over 100 µM. It also gave a TGI [7] of over 100 µM, a TGI [8] of over 100 µM and a TGI [10] of over 100 µM. For the same compound, the TGI [11] was over 100 µM, the TGI [12] was over 100 µM and the TGI [13] was over 100 µM. For the same compound, the TGI [14] was over 100 µM, the TGI [15] was over 100 µM and the TGI [16] was over 100 µM. For the same compound, the TGI [17] was over 100 µM, the TGI [57] was over 100 µM and the TGI [19] was over 100 µM. It also gave a TGI [20] of over 100 µM, a TGI [21] of over 100 µM and a TGI [22] of over 100 µM. For the same compound, the TGI [23] was over 100 µM, the TGI [24] was over 100 µM and the TGI [25] was over 100 µM. For the same compound, the TGI [26] was over 100 µM, the TGI [58] was over 100 µM and the TGI [27] was over 100 µM. For the same compound, the TGI [28] was over 100 µM, the TGI [29] was over 100 µM and the TGI [30] was over 100 µM. It also gave a TGI [31] of over 100 µM, a TGI [32] of over 100 µM and a TGI [33] of over 100 µM. The TGI [34] was over 100 µM, the TGI [35] was over 100 µM and the TGI [36] was over 100 µM. The TGI [37] was over 100 µM, the TGI [38] was over 100 µM and the TGI [39] was over 100 µM. It also gave a TGI [40] of over 100 µM, a TGI [41] of over 100 µM and a TGI [42] of over 100 µM. For the same compound, the TGI [43] was over 100 µM, the TGI [44] was over 100 µM and the TGI [45] was over 100 µM. For the same compound, the TGI [46] was over 100 µM, the TGI [59] was over 100 µM and the TGI [47] was over 100 µM. For the same compound, the TGI [48] was over 100 µM, the TGI [49] was over 100 µM and the TGI [50] was over 100 µM. The TGI [51] was over 100 µM, the TGI [52] was over 100 µM and the TGI [53] was over 100 µM. For the same compound, the TGI [54] was over 100 µM, the TGI [55] was over 100 µM and the TGI [56] was over 100 µM.
